Measurements published in paper PMC10354055, “An optimized Nurr1 agonist provides disease-modifying effects in Parkinson’s disease models” (Nature Communications, 2023).
Values joined by “and” are separate entries in the source; they are usually repeats but may differ in a detail not shown here. Equal entries are not always repeated.

Legend:
[1] = molecular target: T1, Nurr1-LBD (Homo sapiens, UniProt P43354); assay: [3H]-CQ radioligand competition binding assay; conditions: for % of Specific binding / IC50: Fig. 1h; for IC50: competition with [3H]-CQ
Method: Saturation and competition assays were performed as previously described. For saturation assay, 0.2 µM of Nurr1-LBD and 125-10,000 nM of [^3H]-CQ were incubated in binding buffer (20 mM sodium acetate buffer (pH 5.2)) at 4 °C overnight. […] Assay mixtures were applied to GF/B filters (Brandel Inc.) to capture Nurr1-LBD bounded ligands. […] All graphs and IC50 values were generated using the non-linear regression program in GraphPad Prism version 8.0.2.

[2] = test system: MPTP-induced male mice; assay: Pole test, MPTP-induced PD model mice; format: in vivo, mouse; conditions: for Time to traverse: Figure 4c, MPTP-induced mice, individual animal values
Method: (§1) MPTP (Sigma-Aldrich) was intraperitoneally (i.p.) injected (30 mg/kg) for 5 days (Day 1-5). […] To test dyskinetic involuntary behavior, an L-DOPA injected group was included, which received 50 mg/kg of L-DOPA and 15 mg/kg of benserazide (Sigma-Aldrich) (i.p.) for 16 days (Day 1–16). All compounds were administered 6 h post-MPTP injection to avoid any effect of compounds on the MPTP metabolism in the brain. Motor and non-motor related behavior tests were performed on the following days as described in Fig. 4a in an assessor- and observer-blinded fashion. Pre-training and baseline setup for motor-related behaviors were performed 3 days prior to the injections. Mice were sacrificed and subjected to immunohistochemistry. Mice were housed at the Animal Care Facilities of McLean Hospital under a 12-h light/12-h dark cycle, ambient temperature and humidity. Animals were handled in accordance with McLean Hospital’s Institutional Animal Care and Use Committee (Protocol #: 2015N000002) and followed National Institutes of Health guidelines.
Mice were trained to descend a vertical metal rod wrapped with rough tape (80 cm high, 12 mm diameter) once per day for 2 days, and then the baseline was measured before the pole test (3 days before the MPTP injection or the first pole test at week 2). Mice were placed head-upward on the pole and total descent time was recorded.

[3] = molecular target: T1, Nurr1-LBD; assay: TR-FRET competition assay with HCQFluo; format: binding; conditions: Fig. 1i; for IC50: competition with HCQFluo
Method: TR-FRET assay was performed in PPI Terbium (Tb) detection buffer (PerkinElmer) and contained 0.2 µM of Nurr1-LBD, 0.5 µM of fluorescence-labeled hydroxy-CQ (HCQFluo; Proimaging) and serial concentrations of CQ, 4A7C-301 or RA (10^−4–10^6 nM). Rabbit anti-Nurr1 antibody (3 nM; prepared in our lab) and anti-rabbit IgG-Tb (1:400; Cisbio, 61PARTAF) were included in the assay solution as a donor complex. Assay solutions were loaded in a 384-well OptiPlate™ (PerkinElmer). After 2 h incubation in the dark at room temperature, the FRET signal was measured by excitation at 340 nm and emission at 520 nm for fluorescein and 495 nm for Tb using a VICTOR Nivo plate reader (PerkinElmer). Data were fit using the non-linear regression program in GraphPad Prism version 8.0.2.

[4] = test system: N27-A cells; assay: Lysosomal pH detection, LysoSensor, N27-A cells; format: cell-based, rat; conditions: for Lysosomal pH: Figure 3d, individual replicates
Method: Lysosomal pH was detected as previously described. Briefly, after incubation in EBSS containing BafA1 (10 nM), CQ (20 µM), or 4A7C-301 (1 µM) for 6 h, HeLa and N27-A cells were treated with LysoSensor™ Yellow/Blue DND-160 (5 µM; Life Technology) for 45 min, followed by 2 washes in HEPES buffer (Gibco). Fluorescence images at excitation/emission wavelengths of 360/460 nm and 470/525 nm were taken immediately using a 400 nm dichroic mirror (KEYENCE). The ratio of fluorescence intensities (F360/470) were measured and calculated manually using ImageJ for each cell. The average pH from measuring 5 cells from each of three wells for each treatment group in both HeLa and N27-A cells was calculated by fitting the F360/470 values to a plotted pH calibration curve with KCl/NaCl buffered from pH 3.5 to 7.0 using GraphPad Prism (Version 8.0.2).

[5] = test system: MPTP-induced male mice; assay: IHC of Iba-1+ microglia in STR and SNpc, MPTP-induced mice; format: in vivo, mouse; conditions: for Iba-1+ cells in STR (% of control): Figure 4m; for Iba-1+ cells in STR (% of control) / Iba-1+ cells in SNpc (% of control): MPTP-induced mice, individual animal values; for Iba-1+ cells in SNpc (% of control): Figure 4n
Method: as §1
Images were acquired using a KEYENCE microscope and quantified as the number or optical density of immunoreactive cells using ImageJ software.
The numbers of TH^+ DA neurons, NeuN^+ neurons, pS129 αSyn^+ cells in the SN and Iba-1^+ microglia in the SN and striatum were stereologically counted in six coronal sections (30 µm thickness) taken every 6th section (180 µm intervals) for each brain. The boundaries of the SN and striatum were delimited at low magnification (4X) to estimate each total area. Immunoreactive cells were counted with images taken at high magnification (×40) by a single blinded investigator. The group mean of the total number of immunoreactive cells from each brain was transformed as percentage of the number in the control group (%). For AAV-αSyn-induced mice, the group mean of the total number of cells in the ipsilateral side was transformed as a percentage of that observed in the contralateral side.

[6] = test system: MPTP-induced male mice; assay: Dopamine ELISA in SN and STR, MPTP-induced mice; format: in vivo, mouse; conditions: for DA: individual animals
Method: as §1
For MPTP-induced mice, the left hemisphere of each group (n = 5) was used for analysis and compared to the vehicle-treated group (VEH). For AAV-αSyn-injected mouse model, the viral vector injected side (left hemisphere; ipsilateral) of each group (n = 3) was compared to the non-injected side (right hemisphere; contralateral).

T1 sequence (P43354 360-595 limits assumed, species assumed): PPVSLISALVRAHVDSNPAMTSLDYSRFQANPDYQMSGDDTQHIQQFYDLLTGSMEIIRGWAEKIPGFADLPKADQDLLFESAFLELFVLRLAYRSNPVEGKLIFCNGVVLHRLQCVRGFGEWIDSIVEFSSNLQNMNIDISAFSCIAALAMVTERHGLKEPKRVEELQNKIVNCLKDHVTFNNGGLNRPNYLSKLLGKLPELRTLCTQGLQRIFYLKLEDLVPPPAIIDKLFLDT

Row | Structure (SMILES) | % of Specific binding ([1]; competitor conc. 0.0001 (µM)) | % of Specific binding ([1]; competitor conc. 0.001 (µM)) | % of Specific binding ([1]; competitor conc. 0.01 (µM)) | % of Specific binding ([1]; competitor conc. 0.1 (µM)) | % of Specific binding ([1]; competitor conc. 1 (µM)) | % of Specific binding ([1]; competitor conc. 10 (µM)) | % of Specific binding ([1]; competitor conc. 100 (µM)) | % of Specific binding ([1]; competitor conc. 1000 (µM)) | % of Specific binding ([1]; competitor conc. 10000 (µM)) | % of Specific binding ([1]; competitor conc. 100000 (µM)) | % of Specific binding ([1]; competitor conc. 1000000 (µM)) | IC50 [1] | Time to traverse [2] | Interaction [HTRF] ([3]; 0.05 µM) | Interaction [HTRF] ([3]; 0.1 µM) | Interaction [HTRF] ([3]; 0.5 µM) | Interaction [HTRF] ([3]; 1 µM) | Interaction [HTRF] ([3]; 5 µM) | Interaction [HTRF] ([3]; 10 µM) | Interaction [HTRF] ([3]; 50 µM) | other results
1 | CCN(CC)CCCC(C)Nc1ccnc2cc(Cl)ccc12 (stereo not shown) [CQ, chloroquine] | 118.1264% and 84.3678% and 87.5058% | 105.0129% and 88.1206% and 97.7170% | 86.0400% and 103.1100% and 99.0600% | 92.2329% and 89.2060% and 101.4170% | 91.1049% and 87.6783% and 85.5188% | 73.9055% and 78.9516% and 86.9689% | 60.9070% and 71.4020% and 69.8520% | 61.7083% and 49.9850% and 61.0054% | 29.9520% and 33.4512% and 36.5796% | 19.5396% and 23.9835% and 21.7371% | 14.1307% and 7.3236% and 10.4343% | 1030 nM and 1000 nM | 6.3 s and 5.45 s and 6.58 s and 7.09 s and 8.95 s and 7.99 s and 7.69 s and 9.73 s and 9.95 s | 3273.3930 and 3465.5840 and 3369.4880 | 3399.0860 and 3151.8330 and 3275.4590 | 3111.7350 and 2901.1980 and 3006.4660 | 2895.7250 and 2781.2580 and 2838.4910 | 2113.6450 and 1994.2770 and 2053.9610 | 1574.8930 and 1346.8690 and 1460.8810 | 1485.2580 and 1344.1380 and 1414.6980 | Interaction [HTRF] ([3]; 100 µM): 1202.4890 and 1355.5820 and 1279.0350; Interaction [HTRF] ([3]; 200 µM): 1193.4910 and 1136.9480 and 1165.2200; IC50 [3]: 2330 nM and 2000 nM; Lysosomal pH [4]: 4.937 and 5.068 and 5.133 and 5.85 and 5.426 and 5.296 and 5.622 and 4.4486 and 5.263 and 4.481 and 5.947; lysosomal pH (in words) ([4]; N27-A, BafA1 10 nM, CQ 20 µM, 4A7C-301 1 µM): significantly increased; Iba-1+ cells in STR (% of control) [5]: 156.51 % of control and 147.74 % of control and 143.13 % of control and 144.76 % of control and 151.54 % of control and 162.57 % of control and 147.11 % of control and 149.46 % of control; Iba-1+ cells in SNpc (% of control) [5]: 165.17 % of control and 275.28 % of control and 277.25 % of control and 239.89 % of control and 248.74 % of control and 269.38 % of control and 278.23 % of control; DA levels in the SN (in words) [6]: did so only in the SN; DA levels in the STR (in words) [6]: only in the SN; DA ([6]; Supplementary Figure S10b): 49.362 pg/mL and 39.048 pg/mL and 57.173 pg/mL and 55.478 pg/mL and 57.153 pg/mL; DA ([6]; Supplementary Figure S10c): 418.063 pg/mL and 471.117 pg/mL and 318.027 pg/mL and 389.411 pg/mL and 268.088 pg/mL
2 | CCN1CCN(c2cc(N3CCN(CC)CC3)nc(NCCNc3ccnc4cc(Cl)ccc34)n2)CC1 [4A7C-301, N^1-(4,6-bis(4-ethylpiperazin-1-yl)pyrimidin-2-yl)-N^2-(7-chloroquinolin-4-yl)ethane-1,2-diamine] | 97.5500% and 87.3600% and 114.0900% | 93.3315% and 98.5361% and 111.1323% | 98.5241% and 100.1201% and 98.1018% | 94.8655% and 104.0393% and 99.1513% | 96.7105% and 99.4183% and 101.5113% | 93.5241% and 103.1201% and 98.1018% | 102.0642% and 94.9839% and 98.3253% | 95.6857% and 99.8470% and 98.1514% | 97.6484% and 92.6051% and 102.8033% | 94.7542% and 97.7292% and 100.6669% | 94.8500% and 98.0088% and 99.1887% | 48.2 nM and 50 nM | 9.46 s and 8.08 s and 8.64 s and 7.97 s and 6.34 s and 6.11 s and 6.58 s and 5.5 s and 7.12 s | 3265.9820 and 3537.6830 and 3401.8330 | 3598.5100 and 3223.1060 and 3410.8080 | 3591.7500 and 3214.1330 and 3402.9410 | 2993.5610 and 3208.3240 and 3100.9430 | 3661.8470 and 3369.4680 and 3515.6580 | 3348.5030 and 3240.2560 and 3294.3790 | 3293.1070 and 2930.3900 and 3111.7480 | binding affinity for Nurr1-LBD relative to CQ ([1]; from radioligand and TR-FRET IC50s): 20 fold and ~ 20 fold; motor function, pole test (in words) ([2]; CQ 40, 4A7C-301 5, L-DOPA 50 mg/kg/day, i.p., 16 days): significantly rescued; Interaction [HTRF] ([3]; 100 µM): 3045.7890 and 3264.7900 and 3155.2890; Interaction [HTRF] ([3]; 200 µM): 3424.3450 and 3220.2860 and 3322.3150; IC50 [3]: 108 nM and 100 nM; Lysosomal pH [4]: 3.797 and 3.992 and 4.709 and 4.807 and 4.383 and 3.8621 and 3.96 and 4.416 and 4.97 and 4.481 and 4.351 and 4.742 and 4.221 and 3.927; Iba-1+ cells in STR (% of control) [5]: 125.5 % of control and 139.6 % of control and 120.61 % of control and 117.09 % of control and 138.52 % of control and 80.29 % of control and 135.9 % of control; Iba-1+ cells in SNpc (% of control) [5]: 160.25 % of control and 167.13 % of control and 152.39 % of control and 127.81 % of control and 217.28 % of control and 189.75 % of control and 198.6 % of control; Iba-1+ microglia in STR and SN (in words) ([5]; MPTP mice): markedly reduced; DA levels in the SN (in words) [6]: significantly restored; DA levels in the STR (in words) [6]: significantly restored; DA ([6]; Supplementary Figure S10b): 62.619 pg/mL and 53.876 pg/mL and 49.863 pg/mL and 62.002 pg/mL and 54.392 pg/mL; DA ([6]; Supplementary Figure S10c): 384.546 pg/mL and 562.262 pg/mL and 361.203 pg/mL and 377.923 pg/mL and 404.591 pg/mL
